Earlier results as cited in US8940662B2, “Methods for controlling pests” (BASF Corporation, priority 2009, dated 2015).

How the values were obtained:
termites = conditions: general statement
ants = conditions: general statement

For `N#Cc1nn(-c2c(Cl)cc(C(F)(F)F)cc2Cl)c(N)c1[S+]([O-])C(F)(F)F` (racemic) [fipronil, (±)-5-amino-1-(2,6-dichloro-α,α,α-trifluoro-p-tolyl)-4-trifluoromethylsulfinylpyrazole-3-carbonitrile], the “Toxic dose to termites” value (termites) is given as 2 nanograms per termite and the “Toxic dose to ants” value (ants) is given as “about 1 nanogram per ant”.
